According to patent publication US20090023784A1, “USE OF DEFERIPRONE AND METHODS TO TREAT AND/OR PREVENT FRIEDREICH ATAXIA RESULTING FROM INTRACELLULAR MISHANDLING OF IRON” (priority 2006, published 2009):

Tests used:
[1] = Pilot trial: adverse events and biological parameters (hemoglobin, plasma iron, ferritin); assay type: in vivo, human
Text: Ten adolescents (four males, six females aged 14 to 23 yrs) with a diagnosis of Friedreich ataxia, confirmed by detection of a trinucleotide-repeat expansion in the first intron of the frataxin gene, were studied. Patients received deferiprone (Ferriprox™, Apotex Inc., Toronto, Canada) orally, in two doses for 1-5 months. Three patients were included, sequentially, for a minimum period of two months at each dose. Patient enrollment was staggered by two-weeks to enable monitoring of response. In the absence of toxicity, and with evidence of efficacy in any of the first 3 patients, a second group of 3 patients would be included at the same dose for a total duration of 6 months. If there was an absence of both efficacy and toxicity, the second group of three patients would be administered a higher dose. If toxicity developed, the current dose would be suspended and the trial resumed with the next group of patients at a lower dose. The patients were on idebenone (10 mg/kg/day, in three doses) for at least two years prior to inclusion and were kept on the drug at the same dose for the duration of the trial. MRI examinations were done at inclusion and at 1, 2, 4 and 6 months. The protocol was promoted by Assistance Publique-Hopitaux de Paris and approved by the local ethical committee and registered at the National Health Authority (AFSSAPS) and at the International Protocol Registration System (www.clinicaltrials.gov). A written informed consent was obtained from patients and parents.
The International Cooperative Ataxia Rating Score (ICARS) was used to assess the symptoms of ataxia before and after 1-5 months (Cano et al. International cooperative ataxia rating scale (ICARS): Appropriate for studies of Friedreich's ataxia? Mov Disord 2005; 20:1585-91). […] Patients were monitored for neutropenia, agranulocytosis, musculoskeletal pains and zinc deficiency and had weekly blood counts, plasma iron, serum ferritin and transferrin concentration measurements, as well as assessments of renal and liver function.

[2] = 52-week twice daily oral (gavage) toxicity study of deferiprone in non-iron-loaded monkeys; assay type: in vivo, cynomolgus monkeys
Protocol: As part of a larger study on the potential toxicity of iron chelators, we evaluated the toxicity of deferiprone in normal monkeys receiving 150 mg/kg/day (75 mg/kg twice daily) for 1 year.
To determine the toxicity of deferiprone in non-iron-loaded cynomolgus monkeys following twice daily oral (gavage) administration for 52 consecutive weeks, and to evaluate the regression of any toxic effect during a 4-week treatment-free period.
Groups of 4 male and 4 female monkeys (2 to 3 years old) were dosed by nasogastric intubation at (0.5% w/v aqueous carboxymethylcellulose vehicle) 75 mg/kg deferiprone twice daily (bid), with 6-8 hours between doses, for at least 364 days.
Clinical signs, body weights and food intake were assessed at frequent intervals. Ophthalmological and cardiovascular examinations were carried out in Weeks 17, 30, 43, 56 and 60. Hematology, coagulation, clinical chemistry and urine parameters were measured at baseline and in Weeks 8, 16, 30, 41, 56 and 60. Blood samples were taken on the first day of dosing, and in Weeks 17 and 56 for assessment of the serum deferiprone time-concentration profile. A full necropsy was performed on each animal, selected organs weighed, and histopathological examination of abnormalities and selected tissues conducted.

[3] = test system: iron-loaded rats; experiment: Tissue iron content (ICP-MS) in iron-loaded rats treated with deferiprone; assay type: in vivo; conditions: 100 mg/kg daily oral gavage
Protocol: As part of a larger study comparing iron chelators, we conducted histologic examination and electron microscopy (EM) of tissues following iron loading (100 mg/kg iron dose intraperitoneally twice weekly for four weeks) in rats (200-250 g) and treatment with deferiprone. Two control groups of rats were studied, one with no iron loading (“Naïve”) and the other with iron loading but no iron chelation.
Deferiprone was administered five times weekly (daily Monday to Friday). The animals received 89 doses in 127 days of 100 mg/kg daily, by oral gavage.
Iron content in micrograms per gram dry tissue±SD as determined by ICP-MS

## Cc1c(O)c(=O)ccn1C [Deferiprone, 3-hydroxy-1,2-dimethylpyridin-4-one]
[1]; 20 mg/kg/day oral
  signs of toxicity: without signs of toxicity, other than minor adverse effects, such as nausea
[1]; 80 mg/kg/day oral, first patient (P1), terminated at day 17, slowly reversed on drug termination
  adverse events: fatigue, headache, nausea, dizziness, then floppiness, poor head control, abnormal eye movements and fluctuating consciousness
[1]; regardless of the dose (20 and 30 mg/kg/day)
  impact on the levels of hyposideremic anemia and hypoferritinemia: negligible impact
[2]; 75 mg/kg twice daily orally for 52 weeks
  adverse effect (conclusion): without significant adverse effect
[2]; 75 mg/kg twice daily, 52 weeks
  Clinical signs: incidental to administration of deferiprone by the IP route
[2]; 75 mg/kg twice daily, oral gavage, 52 weeks
  deferiprone-related effects on body weight, food intake, ophthalmology, cardiac conduction, blood pressure, heart rate, hematology or urine composition: no deferiprone-related effects
[2]; 75 mg/kg twice daily, oral gavage, 52 weeks, histopathology
  microscopic findings: No microscopic findings
[2]; 75 mg/kg twice daily, oral gavage, 52 weeks, necropsy
  macroscopic findings: No macroscopic findings related to deferiprone
[3]; 89 doses in 127 days, ±SD, Fe-control 205 ± 109, Naive 50 ± 17
  Iron content, Skeletal Muscle: 146 ± 49 micrograms per gram dry tissue
[3]; 89 doses in 127 days, ±SD, Fe-control 583 ± 275, Naive 95 ± 13
  Iron content, Thyroid: 425 ± 228 micrograms per gram dry tissue
[3]; 89 doses in 127 days, ±SD, Fe-control 801 ± 39, Naive 305 ± 80
  Iron content, Kidney: 642 ± 104 micrograms per gram dry tissue
[3]; 89 doses in 127 days, ±SD, Fe-control 1,088 ± 36, Naive 276 ± 25
  Iron content, Heart: 586 ± 143 micrograms per gram dry tissue
[3]; 89 doses in 127 days, ±SD, Fe-control 1,234 ± 227, Naive 376 ± 45
  Iron content, Lung: 1065 ± 101 micrograms per gram dry tissue
[3]; 89 doses in 127 days, ±SD, Fe-control 11,534 ± 554, Naive 376 ± 127
  Iron content, Liver: 7,780 ± 1,637 micrograms per gram dry tissue
[3]; iron-loaded rats
  effect on iron levels in organs: decreased the iron levels in the liver and heart and most other organs
